Here are results for three molecules from patent publication US10688189B1, “Modulated guanidine-containing polymers or nanoparticles” (THE FLORIDA INTERNATIONAL BOARD OF TRUSTEES, priority 2017, dated 2020).

SMILES strings stand for the structures.

The target in one series is T1, CFTR (Homo sapiens, UniProt P13569).
T1 construct: CFTR is located at the apical side (mucosal) of the airway epithelium; endogenous in cells; host or cells: primary NHBE cells, re-differentiated 21 days at the air-liquid interface
Description: Ussing chamber apical CFTR activity in NHBE cells. It is filed as cell-based. Conditions: FIG. 12. The text has this:
Ussing chamber electrophysiology was used to confirm re-differentiation and polarization as per: Unwalla et al., Am. J. Respir. Cell. Mol. Biol. 2015, 52 (1), 65-74; and Chinnapaiyan et al., Sci Rep. 2018, 8(1), 7984. CFTR is located at the apical side (mucosal) of the airway epithelium. Briefly, NHBE cultures were re-differentiated at the air-liquid interface. Following re-differentiation for 21 days, the snap wells were removed from supports and mounted in Ussing chambers. The short circuit current was measured and allowed to stabilize followed by addition of amiloride (10 μM) added apically to eliminate epithelial sodium channel (ENaC) influences. CFTR activation was affected by addition of albuterol (10 μM) and change in short circuit current (ΔISC) was determined. CFTR specificity was confirmed by addition of CFTR inhibitor CFTRinh172 (20 μM) and the decrease in ΔISC was recorded.

For series [1] the following is noted: cited from earlier work.

T1 sequence (P13569 whole entry): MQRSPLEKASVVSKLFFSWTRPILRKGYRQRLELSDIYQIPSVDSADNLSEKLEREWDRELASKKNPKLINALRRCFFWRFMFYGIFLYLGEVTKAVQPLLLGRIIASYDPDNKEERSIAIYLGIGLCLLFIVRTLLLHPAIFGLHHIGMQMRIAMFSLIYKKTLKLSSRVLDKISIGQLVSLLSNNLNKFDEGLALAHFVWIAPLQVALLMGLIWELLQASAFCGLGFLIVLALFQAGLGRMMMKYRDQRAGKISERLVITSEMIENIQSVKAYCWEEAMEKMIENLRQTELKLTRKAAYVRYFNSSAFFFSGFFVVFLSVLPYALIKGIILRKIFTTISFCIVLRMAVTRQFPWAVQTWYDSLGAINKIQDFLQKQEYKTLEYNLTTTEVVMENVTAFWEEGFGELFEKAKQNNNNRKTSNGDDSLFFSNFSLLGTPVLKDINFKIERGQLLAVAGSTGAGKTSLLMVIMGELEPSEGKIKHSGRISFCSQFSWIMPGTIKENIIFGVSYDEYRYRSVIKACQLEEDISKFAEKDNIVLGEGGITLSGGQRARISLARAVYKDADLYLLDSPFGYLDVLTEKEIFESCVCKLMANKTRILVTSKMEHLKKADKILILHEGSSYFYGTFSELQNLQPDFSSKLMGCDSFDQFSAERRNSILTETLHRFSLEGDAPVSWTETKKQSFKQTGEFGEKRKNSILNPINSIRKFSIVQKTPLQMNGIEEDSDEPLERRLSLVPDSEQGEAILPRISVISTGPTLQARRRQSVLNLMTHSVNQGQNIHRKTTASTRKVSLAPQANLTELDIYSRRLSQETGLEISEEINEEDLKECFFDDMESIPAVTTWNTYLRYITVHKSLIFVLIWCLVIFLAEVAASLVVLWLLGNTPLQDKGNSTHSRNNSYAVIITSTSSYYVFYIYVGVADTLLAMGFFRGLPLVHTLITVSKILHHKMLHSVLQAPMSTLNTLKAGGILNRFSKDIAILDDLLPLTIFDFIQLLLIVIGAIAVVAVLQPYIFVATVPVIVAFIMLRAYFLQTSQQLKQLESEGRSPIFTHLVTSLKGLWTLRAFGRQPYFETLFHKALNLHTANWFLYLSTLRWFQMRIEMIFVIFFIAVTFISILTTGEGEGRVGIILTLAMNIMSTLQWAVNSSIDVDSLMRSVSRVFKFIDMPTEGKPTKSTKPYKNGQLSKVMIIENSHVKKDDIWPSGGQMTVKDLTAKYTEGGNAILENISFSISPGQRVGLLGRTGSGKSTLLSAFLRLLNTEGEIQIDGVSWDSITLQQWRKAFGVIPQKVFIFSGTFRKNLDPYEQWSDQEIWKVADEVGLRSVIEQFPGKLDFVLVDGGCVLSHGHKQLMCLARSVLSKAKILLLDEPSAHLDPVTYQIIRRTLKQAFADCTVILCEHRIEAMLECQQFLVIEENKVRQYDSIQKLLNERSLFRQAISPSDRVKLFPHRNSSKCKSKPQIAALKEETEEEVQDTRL

In the case of `O=C(O)c1ccc(/C=C2\SC(=S)N(c3cccc(C(F)(F)F)c3)C2=O)cc1` [CFIRinh172], the “short circuit current after CFTR inhibitor” value on CFTR (20 μM after albuterol) is “decreased current”.

As to `N=C(N)N` [Guanidine], in series [1], the “pKa value of protonated counterpart” value is 12.48.

For `CC(C)(C)NCC(O)c1ccc(O)c(CO)c1` (stereo not drawn) [albuterol], the “short circuit current on CFTR activation” value at CFTR (albuterol 10 μM after amiloride) is given as “sharp current increase occurs immediately”.
